This note sets out measurements from patent US9458154B2, “Kinase inhibitors” (Chiesi Farmaceutici S.p.A., priority 2011, dated 2016).

Structures are written as SMILES. Some results are limits rather than exact numbers.

In the test the target is T1, p38alpha (Homo sapiens, UniProt Q16539).
T1 construct: purchased Invitrogen PV3304
T1 sequence (Q16539 whole entry): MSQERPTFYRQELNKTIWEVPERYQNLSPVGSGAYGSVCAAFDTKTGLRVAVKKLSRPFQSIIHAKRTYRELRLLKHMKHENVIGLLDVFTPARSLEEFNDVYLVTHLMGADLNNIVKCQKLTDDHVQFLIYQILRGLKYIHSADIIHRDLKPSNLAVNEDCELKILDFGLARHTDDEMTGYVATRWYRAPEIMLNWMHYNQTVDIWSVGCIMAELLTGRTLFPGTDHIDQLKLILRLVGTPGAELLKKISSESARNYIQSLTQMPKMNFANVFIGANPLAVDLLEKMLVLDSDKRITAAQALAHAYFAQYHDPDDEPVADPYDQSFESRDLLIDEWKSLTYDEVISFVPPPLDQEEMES
Briefly: P38alpha Enzyme Inhibition Assay (Alphascreen kinase activity assay). The test is classed as biochemical. To be noted: 100 pM p38alpha, ATF-2 fusion protein substrate, 250 μM ATP, 2 hours preincubation at 25° C.; read-out: p38α inhibition. The procedure:
P38alpha Enzyme Inhibition Assay
The inhibitory activity of compounds was determined using an Alphascreen® (Perkin Elmer) based kinase activity assay. Kinase reactions consisted of 25 mM HEPES pH 7.5, 10 mM MgCl2, 100 μM Na3VO4, 2 mM DTT, 0.05 mg/ml Tween 20, 100 pM p38alpha (Invitrogen, PV3304), 1% DMSO and 0.3 μg/ml ATF-2 fusion protein (New England Biolabs, 9224). Compounds were incubated under these conditions for 2 hours, at 25° C., prior to the initiation of the kinase activity by the addition of the 250 μM ATP. Reaction volumes were 20 uL. After 1 hr at 25° C. reactions were stopped by the adding 10 uL of 25 mM HEPES pH 7.5 containing 62.5 mM EDTA, 0.05% Triton X-100, 10% BSA and 0.83 ng/uL anti-phospho-ATF2 antibody (Abcam, ab28812). Detection was performed by measuring luminescence following the addition of Alphascreen Donor beads (Perkin Elmer 6765300) and Protein A Alphascreen Acceptor beads (Perkin Elmer 6760137), both at a final concentration of 20 ug/ml. IC50 values were determined from concentration-response curves.
On the technique in general: In Alpha technology, singlet oxygen from a donor bead excites a nearby acceptor bead.
As to `CC(C)c1nnc2ccc(O[C@@H]3CC[C@H](NC(=O)Nc4cc(F)cc(N5CCOCC5)c4)c4ccccc43)cn12` [Example 29, 1-(3-Fluoro-5-morpholin-4-yl-phenyl)-3-[(1S,4R)-4-(3-isopropyl-[1,2,4]triazolo[4,3-a]pyridin-6-yloxy)-1,2,3,4-tetrahydro-naphthalen-1-yl]-urea], the IC50 is less than 0.01 µM.

For the compound `Cc1ccc(-n2nc(C(C)(C)C)cc2NC(=O)N[C@H]2CC[C@@H](Oc3ccc4nnc(-c5cccc(OCCN6CCOCC6)c5)n4c3)c3ccccc32)cc1` [Example 4, 1-(5-tert-Butyl-2-p-tolyl-2H-pyrazol-3-yl)-3-[(1S,4R)-4-{3-[3-(2-morpholin-4-yl-ethoxy)-phenyl]-[1,2,4]triazolo[4,3-a]pyridin-6-yloxy}-1,2,3,4-tetrahydro-naphthalen-1-yl)-urea], the IC50 was less than 0.01 µM.

In the case of `CC(C)c1nnc2ccc(O[C@@H]3CC[C@H](NC(=O)Nc4cc(C(C)(C)C)nn4-c4ccc(F)c(CN5CCOCC5)c4)c4ccccc43)cn12` [Example 31, 1-{5-tert-Butyl-2-(4-fluoro-3-morpholin-4-ylmethyl-phenyl)-2H-pyrazol-3-yl}-3-[(1S,4R)-4-(3-isopropyl-[1,2,4]triazolo[4,3-a]pyridin-6-yloxy)-1,2,3,4-tetrahydro-naphthalen-1-yl]-urea], the IC50 is less than 0.01 µM.

For the compound `CC(C)c1nnc2ccc(O[C@@H]3CC[C@H](NC(=O)Nc4cc(C(C)(C)C)nn4-c4ccc(O)c(Cl)c4)c4ccccc43)cn12` [Example 12, 1-[5-tert-Butyl-2-(3-chloro-4-hydroxy-phenyl)-2H-pyrazol-3-yl]-3-[(1S,4R)-4-(3-isopropyl-[1,2,4]triazolo[4,3-a]pyridin-6-yloxy)-1,2,3,4-tetrahydro-naphthalen-1-yl]-urea], the IC50 is less than 0.01 µM.

Consider `CC(C)c1nnc2ccc(O[C@@H]3CC[C@H](NC(=O)NC4CC4)c4ccccc43)cn12` [Example 13, 1-Cyclopropyl-3-[(1S,4R)-4-(3-isopropyl-[1,2,4]triazolo[4,3-a]pyridin-6-yloxy)-1,2,3,4-tetrahydro-naphthalen-1-yl]-urea], for which the IC50 is 0.01 to 0.1 µM.

Regarding `CC(C)c1nnc2ccc(O[C@H]3CC[C@H](NC(=O)Nc4cc(C(C)(C)C)nn4-c4ccc(Cl)c(O)c4)c4ccccc43)cn12` [Example 27, 1-[5-tert-Butyl-2-(4-chloro-3-hydroxy-phenyl)-2H-pyrazol-3-yl]-3-[(1S,4S)-4-(3-isopropyl-[1,2,4]triazolo[4,3-a]pyridin-6-yloxy)-1,2,3,4-tetrahydro-naphthalen-1-yl]-urea], the IC50 was less than 0.01 µM.

Turning to `CC(C)c1nnc2ccc(O[C@H]3CC[C@H](NC(=O)Nc4cc(F)cc(N5CCOCC5)c4)c4ccccc43)cn12` [Example 30, 1-(3-Fluoro-5-morpholin-4-yl-phenyl)-3-[(1S,4S)-4-(3-isopropyl-[1,2,4]triazolo[4,3-a]pyridin-6-yloxy)-1,2,3,4-tetrahydro-naphthalen-1-yl]-urea], the IC50 was less than 0.01 µM.
